Consider seven substances from US7091185B2, “Periodic antimicrobial peptides” (Dow Global Technologies Inc., priority 2003, dated 2006).

Series [1] relates to Staph. aureus ATCC 6538. As to the kind of experiment: HMARQ biocidal kill activity. Format: cell-based. As to conditions: Staph. aureus ATCC 6538 (gram+). Put shortly: (§1)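 Inoculated sample matrix (200–300 μL) added to biocide in 96-well blocks alongside untreated controls; for kill-time runs organisms added after biocide. Viable counts by MPN serial 1:10 dilution in TSB with 50 μM resazurin indicator; values are ppm (μg/mL) giving 3.5 log kill versus untreated at 15 min or 24 h.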

For series [2], the system named is P. aeruginosa ATCC 15442. As to the kind of experiment: HMARQ biocidal kill activity. Format: cell-based. The conditions noted are these: P. aeruginosa ATCC 15442 (gram−). Put shortly: as §1
For series [3], the system named is P. aeruginosa ATCC 15442 / Staph. aureus ATCC 6538. Put plainly: HMARQ biocidal testing. As to conditions: summary of Table 6; peptides too small to span the membrane. Type of series: cell-based. As for the experimental part:
Biocide efficacy protocols were improved by reducing sample size, organizing the test material into an array format, implementing most probable number (MPN) quantitation and using multi-channel liquid handling equipment. We call the new method “high-throughput microanalysis and rapid quantitation” or “HMARQ.” HMARQ is directly applicable to current industrial efficacy tests such as multi-cycle preservation challenge or time course disinfection tests.
HMARQ is performed in a high throughput plate, such as 96-well microtiter plates. Typical sample volumes have been reduced down to 200 to 300 μL, but can be reduced further if desired. In these samples, no more than 10% of the total volume will be composed of the biocide and organism solution, and all non-matrix additions are normalized for all samples.
The sample matrix is first inoculated with the desired concentration of microorganisms. Inoculated sample matrix is then added to the 96-well assay block containing the biocide(s) under study. Each sample block contains biocide treated samples and untreated control samples (lacking biocide). Once the samples are prepared, the entire block of samples is mixed by vortexing until each sample is homogenous. In general, the study starts once mixing is complete, and samples are removed as required for the analysis. When Kill Time testing (rate of biocide activity) is performed, the microorganisms are added after biocide addition to the samples, allowing for rapid mixing and analysis.
Bacterial concentration (CFU/mL) is determined using the most probable number method (MPN). […] A serial 1:10 dilution will yield a bacterial concentration resolution of 1 log and the log reduction is determined by comparing the concentration of organisms in a treated sample to the concentration of organisms in untreated samples. […]
Using the HMARQ test described above, periodic peptides were generated and tested for Kill Activity. […] Units are expressed as ppm (μg/mL) needed for 3.5 log kill at 15 min or 24 hour and the results are shown below.

Series [4] has as its system P. aeruginosa ATCC 15442. As to the kind of experiment: HMARQ biocidal kill activity. Format: cell-based. The conditions noted are these: P. aeruginosa ATCC 15442, 15 min, 3 log kill.
For the next series, the system named is Red blood cells (RBC). As to the kind of experiment: Red blood cell toxicity. Type of series: cell-based.
The next series can be described thus: Red blood cell toxicity. Type of series: cell-based. The conditions noted are these: red blood cells (RBC); RBCs; concentration required for 50% toxicity; read-out: TX50.
A further series deals with Cr. Neoformans 32045. Type of series: cell-based. The method in brief:
(§2)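 Broth microdilution per NCCLS, adapted for fungi with Sabouraud Dextrose Broth; KFAK-repeat peptide multimers in two-fold dilutions from 1,000 to 1 μg/ml. Growth by OD620 after overnight incubation; IC50 by sigmoidal fit, in duplicate, repeated at least twice.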

The test system of another series is C. albicans 10231. Type of series: cell-based. The conditions noted are these: 10231. Put shortly:
as §2

The test system of a further series is P. aeruginosa ATCC 10145. As to conditions: ATCC 10145.
The next series has as its system E. coli ATCC 2592. As to conditions: ATCC 2592.
Series [5] concerns S. aureus (methicillin resistant) ATCC 33591.
Another series has as its system HeLa cell line. Put plainly: HeLa MTS cellular reduction toxicity assay. Format: cell-based. As to conditions: for TX50: 24 h, MTS. The method in brief: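 HeLa cells grown 48 h, then exposed to serial 2-fold peptide dilutions for 24 h at 37 °C, 5% CO2. MTS-PMS added for 1 h; absorbance at 490 nm compared with untreated cells. TX50 (50% toxicity concentration) from sigmoidal curve fit.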
(In general: Formazan colour is commonly taken as a measure of viable cells.)

The test system of series [6] is Staph. aureus ATCC 6538. Put plainly: HMARQ biocidal kill activity. Format: cell-based. As to conditions: Staph. aureus ATCC 6538, 15 min, 3 log kill.
The test system of another series is T. vaginalis. The conditions noted are these: background statement; cited from earlier work.
For another series, the system named is C. trachomatis. The conditions noted are these: background statement; cited from earlier work.
For the next series, the system named is P. aeruginosa. As to conditions: background statement; cited from earlier work.
Series [7] concerns herpes simplex virus (HSV). As to conditions: mixed with a modified lipid octyl-glycerol; compared with magainins and defensins; cited from earlier work.
For series [8], the system named is rat prostate adenocarcinoma. As to conditions: rat prostate adenocarcinoma model, cited from earlier work.
[9] abbreviates: S. aureus (methicillin resistant) 33591, gram+.

Like-named read-outs stand apart in the source and are kept apart here. Where no end group is shown, it is not given here.

Turning to LK LK (LKLK; Periodic Peptide) [LK(2)], in the series with Staph. aureus ATCC 6538 [1], the “ppm needed for 3.5 log kill at 15 min” value was above 500 ppm and the “ppm needed for 3.5 log kill at 24 hr” value was 16 ppm. Also, in the series on P. aeruginosa ATCC 15442 [2], the “ppm needed for 3.5 log kill at 15 min” value is listed as above 500 ppm and the “ppm needed for 3.5 log kill at 24 hr” value worked out at 250 ppm. Also, in [3], the “biocidal activity (statement)” value was “demonstrate biocidal activity”.
As for “FKA FKA FKA FKA (FKAFKAFKAFKA; Periodic Peptide) [FKA(4)]”, in the series on Staph. aureus ATCC 6538 [1], the “ppm needed for 3.5 log kill at 15 min” value was 4 ppm and the “ppm needed for 3.5 log kill at 24 hr” value turned out to be 250 ppm. Further, in the series on P. aeruginosa ATCC 15442 [2], the “ppm needed for 3.5 log kill at 15 min” value was above 500 ppm and the “ppm needed for 3.5 log kill at 24 hr” value was 125 ppm. Moreover, the “biocidal activity (statement)” value in series [3] was “demonstrate biocidal activity”.
Turning to “LRLRLRLRLRLRLRLRLR [LR (9), LR LR LR LR LR LR LR LR LR]”, the “ppm at 15 min, cell marked (3 log)” value in the series with P. aeruginosa ATCC 15442 [4] is recorded as 31(3 log) ppm. In the series with Red blood cells (RBC) (RBCs, 250 μg/ml), the “% kill at 250 μg/ml” value came to 24%. Further, the HC50 at 24 h in the series “Red blood cell toxicity” was above 500 µg/mL. Further, the IC50 (usually the concentration at which inhibition is half-maximal) in the series on Cr. Neoformans 32045 was 21 µg/mL; in the series on C. albicans 10231, 195 µg/mL; in the series with P. aeruginosa ATCC 10145 it was above 250 µg/mL; in the series on E. coli ATCC 2592 it was 70 µg/mL; in series [5] (setting [9]), 28 µg/mL. Besides, the MIC (in general, the lowest concentration that inhibits growth of the organism) against Cr. Neoformans 32045 was 62 to 125 µg/mL; against C. albicans 10231 it was 250 to 500 µg/mL; against P. aeruginosa ATCC 10145, above 250 µg/mL; against E. coli ATCC 2592, above 125 µg/mL; in series [5] (setting [9]), 125 to 250 µg/mL. For the same substance, in the series with Staph. aureus ATCC 6538 [1], the “ppm needed for 3.5 log kill at 15 min” value is 16 ppm. The “ppm needed for 3.5 log kill at 24 hr” value is 8 ppm in the series on Staph. aureus ATCC 6538 [1] and 4 ppm in the series on P. aeruginosa ATCC 15442 [2]. For the same substance, in the series with HeLa cell line, the “% kill at 500 μg/ml” value turned out to be 96.7%. For the same substance, the TX50 in the series on HeLa cell line was above 500 µg/mL.
As to “LKLKLKLKLKLKLKLKLKLKLKLK [LK (12), LK LK LK LK LK LK LK LK LK LK LK LK]”, the “ppm at 15 min, cell marked (3 log)” value in the series on P. aeruginosa ATCC 15442 [4] was 16 (3 log) ppm. The “% kill at 250 μg/ml” value in the series with Red blood cells (RBC) amounted to 35%. Moreover, in the series “Red blood cell toxicity”, the HC50 at 24 h is above 500 µg/mL. Also, the 50% inhibitory concentration (IC50) turned out to be 22 µg/mL with Cr. Neoformans 32045; 175 µg/mL with C. albicans 10231; 41 µg/mL in the series with P. aeruginosa ATCC 10145; 23 µg/mL in the series with E. coli ATCC 2592; 85 µg/mL in series [5] (ATCC 33591). The MIC in the series with Cr. Neoformans 32045 was 32 to 62 µg/mL; in the series on C. albicans 10231, 250 to 500 µg/mL; against P. aeruginosa ATCC 10145 it was 45 µg/mL; in the series with E. coli ATCC 2592, 62 to 125 µg/mL; in series [5] (ATCC 33591), above 250 µg/mL. Moreover, in the series on Staph. aureus ATCC 6538 [1], the “ppm needed for 3.5 log kill at 15 min” value came to 4 ppm. For the same substance, the “ppm needed for 3.5 log kill at 24 hr” value in the series on Staph. aureus ATCC 6538 [1] amounted to 8 ppm; with P. aeruginosa ATCC 15442 [2], 4 ppm. The “% kill at 500 μg/ml” value in the series on HeLa cell line worked out at 60.0%. The same substance came in with a TX50 in the series on HeLa cell line of 49 µg/mL.
Take “KFAK KFAK KFAK KFAK KFAK KFAK KFAK KFAK KFAK KFAK KFAK KFAK (KFAKKFAKKFAKKFAKKFAKKFAKKFAKKFAKKFAKKFAKKFAKKFAK; Periodic Peptide) [KFAK(12)]”: the “ppm at 15 min, cell marked (3 log)” value in the series on Staph. aureus ATCC 6538 [6] is recorded as 31(3 log) ppm. In addition, the “ppm needed for 3.5 log kill at 24 hr” value with Staph. aureus ATCC 6538 [1] is on record as above 500 ppm. Besides, in the series with P. aeruginosa ATCC 15442 [2], the “ppm needed for 3.5 log kill at 15 min” value turned out to be 16 ppm and the “ppm needed for 3.5 log kill at 24 hr” value was found to be 31 ppm.
On to “FAKKFAKKFKKFAKKFAKFAFAF [D2A21, reference compound]”, for which the “activity (statement)” value in the series on T. vaginalis, in the series with C. trachomatis and with P. aeruginosa was “has activity against” each time. The “% kill at 250 μg/ml” value in the series with Red blood cells (RBC) (RBCs, 250 μg/ml) is given as 93.1%. In the series “Red blood cell toxicity”, the HC50 at 24 h is 52 µg/mL. Further, the half-inhibitory concentration (IC50) in the series with Cr. Neoformans 32045 worked out at 21.9 µg/mL; in the series on C. albicans 10231, 121.5 µg/mL; in the series on P. aeruginosa ATCC 10145, 11.3 µg/mL; in the series on E. coli ATCC 2592, 4.5 µg/mL; in series [5] (ATCC 33591) it was 11.9 µg/mL. Also, the MIC was 62 to 125 µg/mL against Cr. Neoformans 32045, above 250 µg/mL against C. albicans 10231, 8 to 16 µg/mL in the series on E. coli ATCC 2592 and 62 to 125 µg/mL in [5] (ATCC 33591). The “% kill at 500 μg/ml” value in the series with HeLa cell line is recorded as 7.1%. The TX50 in the series with HeLa cell line is 16.9 µg/mL. In addition, the “activity against HSV compared with other peptides” value in [7] was “better than five other peptides”. Besides, the survival rate in [8] (improved from 25%, preliminary results (Arlotti 2001)) is given as 75%. Further, in [8], the toxicities result is recorded as “not causing any significant toxicities”.
For the substance “FKA FKA (FKAFKA; Periodic Peptide) [FKA(2)]”, in the series on Staph. aureus ATCC 6538 [1], the “ppm needed for 3.5 log kill at 15 min” value was 16 ppm and the “ppm needed for 3.5 log kill at 24 hr” value was 500 ppm. Moreover, in the series on P. aeruginosa ATCC 15442 [2], the “ppm needed for 3.5 log kill at 15 min” value is above 500 ppm and the “ppm needed for 3.5 log kill at 24 hr” value is listed as 125 ppm. Also, in series [3], the “biocidal activity (statement)” value is on record as “demonstrate biocidal activity”.
